Measurements from patent publication US20050159333A1, “Methods of modulating smooth muscle contractility” (priority 2002, published 2005).
Where “and” joins values, the source holds several entries; their conditions need not be identical. Identical values can stand only once. Counter-ions that a name gives are not always drawn. Like-named read-outs stand apart in the source and are kept apart here.

Tests used:
[1] = tested on: isolated male rat urinary bladder; assay: contractile responses of isolated male rat urinary bladder to the PKC activator phorbol ester; format: cell-based
[2] = tested on: isolated rabbit urinary bladder smooth muscle; settings: Jezior et al. 2001, cited from earlier work
[3] = tested on: isolated male rat urinary bladder; assay: α,β-methylene ATP-evoked contractions of isolated male rat urinary bladder strips (organ bath); format: cell-based; settings: for attenuation of α,β-methylene ATP-evoked bladder contractions: 10 μM inhibitor, 45 min, 10 μM α,β-methylene ATP
PKC from rat brain = settings: cited from earlier work
PKC, human form = PKC, human form (Homo sapiens, UniProt P17252); settings: 20 μM HA-1077; Davies et al. 2000; cited from earlier work
isolated rabbit aorta = settings: Seto et al. 1991; cited from earlier work
[4] = target: protein kinase C-related protein kinase 2 (PRK2) (Homo sapiens, UniProt Q16513); settings: Davies et al. 2000; cited from earlier work
[5] = tested on: isolated male rat urinary bladder; assay: baseline bladder tension of isolated male rat urinary bladder strips; format: cell-based; settings: for decrease in baseline bladder tension from baseline / relaxation (decrease in baseline bladder tension): 10 μM, 45 min incubation; for effect on baseline bladder tension / bladder tone: absence of agonist-evoked contractile responses
[6] = tested on: isolated male rat urinary bladder; assay: KCl-evoked contractions of isolated male rat urinary bladder strips (organ bath); format: cell-based
[7] = tested on: isolated male rat urinary bladder; assay: NKA-evoked contractions of isolated male rat urinary bladder strips (organ bath); format: cell-based
[8] = tested on: isolated male rat urinary bladder; assay: electrically-evoked contractions of isolated male rat urinary bladder strips (organ bath); format: cell-based
ROCK II = settings: Ishizaki et al. 2000; cited from earlier work
[9] = tested on: isolated male rat urinary bladder; assay: carbachol-evoked contractions of isolated male rat urinary bladder strips (organ bath); format: cell-based
PRK1 (protein kinase N) = PRK1 (protein kinase N) (Homo sapiens, UniProt Q16512); settings: cited from earlier work
[10] = tested on: isolated rabbit pulmonary artery; settings: Fu et al. 1998; cited from earlier work
[11] = tested on: other serine/threonine protein kinases; settings: Davies et al. 2000; cited from earlier work
[12] = Y-27632 10 μM, unpublished observations
[13] = vehicle experiments, at 3×10^−7 M NKA
[14] = Rattus norvegicus, read-out: antagonist affinity (pKb) (converted)
[15] = all frequencies (2, 4, 8, 16 Hz), Y-27632 10 μM, atropine 1 μM, α,β-methylene ATP 10 μM

protein kinase C-related protein kinase 2 (PRK2), sequence (Q16513 whole entry, species assumed): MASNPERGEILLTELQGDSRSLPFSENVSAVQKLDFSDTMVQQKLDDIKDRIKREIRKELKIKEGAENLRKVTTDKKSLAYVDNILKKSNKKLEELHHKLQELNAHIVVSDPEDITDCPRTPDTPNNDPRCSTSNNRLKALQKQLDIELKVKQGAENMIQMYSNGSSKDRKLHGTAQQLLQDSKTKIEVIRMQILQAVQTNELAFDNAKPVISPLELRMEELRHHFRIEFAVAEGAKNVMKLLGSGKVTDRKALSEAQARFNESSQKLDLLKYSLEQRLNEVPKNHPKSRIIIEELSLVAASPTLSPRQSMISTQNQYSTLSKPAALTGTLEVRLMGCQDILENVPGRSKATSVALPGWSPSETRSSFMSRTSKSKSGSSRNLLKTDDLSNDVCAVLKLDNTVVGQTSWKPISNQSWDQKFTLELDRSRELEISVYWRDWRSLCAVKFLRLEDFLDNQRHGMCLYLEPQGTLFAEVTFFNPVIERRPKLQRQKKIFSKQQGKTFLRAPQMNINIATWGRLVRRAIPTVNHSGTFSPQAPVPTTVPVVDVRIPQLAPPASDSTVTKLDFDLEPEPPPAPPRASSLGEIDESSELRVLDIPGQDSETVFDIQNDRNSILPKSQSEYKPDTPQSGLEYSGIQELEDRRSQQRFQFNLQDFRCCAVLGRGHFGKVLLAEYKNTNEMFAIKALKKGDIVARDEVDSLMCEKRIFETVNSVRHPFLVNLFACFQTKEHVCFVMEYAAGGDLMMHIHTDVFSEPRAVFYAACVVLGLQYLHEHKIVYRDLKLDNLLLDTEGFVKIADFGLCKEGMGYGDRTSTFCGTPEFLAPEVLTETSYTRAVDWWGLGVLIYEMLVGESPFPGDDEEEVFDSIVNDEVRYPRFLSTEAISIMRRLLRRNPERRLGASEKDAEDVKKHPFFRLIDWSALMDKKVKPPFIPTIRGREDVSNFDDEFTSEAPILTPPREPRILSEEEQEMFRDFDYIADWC
PRK1 (protein kinase N), sequence (Q16512 whole entry, species assumed): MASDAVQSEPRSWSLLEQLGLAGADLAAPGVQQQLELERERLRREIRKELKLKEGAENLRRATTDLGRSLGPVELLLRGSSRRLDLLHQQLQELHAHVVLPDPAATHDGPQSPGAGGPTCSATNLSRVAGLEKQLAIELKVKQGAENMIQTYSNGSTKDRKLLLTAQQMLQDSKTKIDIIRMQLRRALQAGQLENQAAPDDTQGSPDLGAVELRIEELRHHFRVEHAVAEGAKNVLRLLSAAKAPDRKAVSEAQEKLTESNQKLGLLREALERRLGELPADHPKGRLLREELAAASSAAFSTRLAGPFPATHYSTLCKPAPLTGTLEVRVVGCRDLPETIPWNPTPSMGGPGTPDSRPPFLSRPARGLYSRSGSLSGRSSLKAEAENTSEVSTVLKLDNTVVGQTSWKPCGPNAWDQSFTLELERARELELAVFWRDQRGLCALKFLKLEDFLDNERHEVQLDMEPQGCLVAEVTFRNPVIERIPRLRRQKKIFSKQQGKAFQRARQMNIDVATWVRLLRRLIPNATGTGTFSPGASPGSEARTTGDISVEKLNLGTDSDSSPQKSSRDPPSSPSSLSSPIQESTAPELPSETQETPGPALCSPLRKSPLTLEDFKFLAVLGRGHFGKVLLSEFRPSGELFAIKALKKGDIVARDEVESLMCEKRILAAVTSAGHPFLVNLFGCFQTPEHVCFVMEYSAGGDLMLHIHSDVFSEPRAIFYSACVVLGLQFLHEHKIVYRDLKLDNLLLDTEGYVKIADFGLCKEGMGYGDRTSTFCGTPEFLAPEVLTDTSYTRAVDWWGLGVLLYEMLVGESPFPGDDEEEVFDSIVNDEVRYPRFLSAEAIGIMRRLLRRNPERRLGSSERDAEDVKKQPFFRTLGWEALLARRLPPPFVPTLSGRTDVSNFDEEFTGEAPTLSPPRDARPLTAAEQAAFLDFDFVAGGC

Structure (SMILES): CN(C)CCCn1cc(C2=C(c3c[nH]c4ccccc34)C(=O)NC2=O)c2ccccc21 [GF109203X]
- effect on contractile responses to the PKC activator phorbol ester [1]: inhibited

Structure (SMILES): O=S(=O)(c1cccc2cnccc12)N1CCCNCC1 [HA-1077, fasudil]
- effect on bethanechol-evoked contractions [2]: attenuate
- attenuation of α,β-methylene ATP-evoked bladder contractions [3]: 22.1±5.7% and 22±6%
- effect on contractile responses to the PKC activator phorbol ester [1, 12]: no inhibitory effects
- Ki (PKC from rat brain): 9.3 µM
- inhibitory effect on the human form of PKC (PKC, human form): no significant inhibitory effects
- effect on PG-evoked contractions (isolated rabbit aorta): inhibits
- effect on PRK2 [4]: inhibited
- decrease in baseline bladder tension from baseline [5]: 36.1±1.6%
- relaxation (decrease in baseline bladder tension) [5]: 0.30 ± 0.01 g
- effect on baseline bladder tension / bladder tone [5]: decreased bladder tone

Structure (SMILES): [Cl-].[K+] [KCl, potassium chloride]
- maximal response to KCl [6]: 8.7 ± 0.5 g
- EC50 ([6]; read-out: KCl EC50 in the absence of antagonist): 31000 ± 4300 µM

Structure (SMILES): CSCC[C@H](NC(=O)[C@H](CC(C)C)NC(=O)CNC(=O)[C@@H](NC(=O)[C@H](Cc1ccccc1)NC(=O)[C@H](CO)NC(=O)[C@H](CC(=O)O)NC(=O)[C@@H](NC(=O)[C@H](CCCCN)NC(=O)[C@@H](N)Cc1c[nH]cn1)[C@@H](C)O)C(C)C)C(N)=O [NKA, Neurokinin A]
- EC50 ([7]; read-out: NKA EC50 in the presence of Y-27632, 10 μM Y-27632): 0.0324 µM
- maximal response to NKA [7, 13]: 4.2 ± 0.4 g
- maximal response to NKA as % of the response to 100 mM KCl [7, 13]: 136.2±24.8%

Structure (SMILES): NC1=N[C@H](O)[C@H]2[C@H]3O[C@]4(O)O[C@@H]([C@@H](O)[C@@]2(N1)[C@@H]4O)[C@]3(O)CO [TTX, tetrodotoxin]
- effect on frequency-response curves to electrical stimulation [8]: abolished

Structure (SMILES): C[C@@H](N)[C@H]1CC[C@H](C(=O)Nc2ccncc2)CC1 [Y-27632, (+)-(R)-trans-4-(1-amino-ethyl)-N-(4-pyridyl) cyclohexanecarboxamide dihydrochloride monohydrate]
- effect on bethanechol-evoked contractions ([2]; dihydrochloride monohydrate): attenuates
- Ki (ROCK II): 0.3 µM
- effect on contractile response to KCl ([6]; 10 μM Y-27632, KCl 10-100 mM, dihydrochloride monohydrate): no measureable effect
- effect on NKA-induced contractions ([7]; 10 μM Y-27632, all concentrations of agonist): significantly attenuated
- attenuation of NKA-evoked bladder contractions ([7]; 10 μM Y-27632, at 10^−6 M): 69±13%
- Kb [7, 14]: 2.51 µM
- inhibition at 10 µM ([7]; Rattus norvegicus, read-out: inhibition of NKA-induced contractions): 68.6 ± 12.7%
- attenuation of α,β-methylene ATP-evoked bladder contractions ([3]; dihydrochloride monohydrate): 30.0±7.2% and 30±7% and ~30%
- effect on contractile responses to the PKC activator phorbol ester [1, 12]: no effect
- inhibition of carbachol-evoked contractions ([9]; 10 μM Y-27632, 45 min pretreatment, at 3×10^−6 M carbachol, dihydrochloride monohydrate): 58±11%
- effect on carbachol-evoked contractions ([9]; 10 μM Y-27632, 10^−5-10^−4 carbachol): this inhibition was not significant
- effect on carbachol-evoked contractions ([9]; 10 μM Y-27632, 10^−9-3×10^−6 M carbachol): significantly attenuated
- inhibition at 10 µM ([9]; Rattus norvegicus, 10 μM Y-27632, 45 min pretreatment, at 3×10^−6 M carbachol): 58.1 ± 10.5%
- Kb [9, 14]: 2.14 µM
- degree of attenuation of G protein-coupled receptor contractile responses (carbachol and NKA) ([9]; Y-27632 10 μM, carbachol and NKA responses together): approximately 50%
- effect on carbachol-evoked contractions ([9]; pretreatment with 1 and 3 μM Y-27632): no effect
- effect on PRK2 [4]: inhibited
- effect on AUC of electrically-evoked bladder contractions [8, 15]: significantly attenuated
- effect on amplitude of electrically-evoked bladder contractions [8, 15]: significantly attenuated
- Ki (PRK1 (protein kinase N)): 3.1 µM
- effect on AA-evoked contractile responses [10]: attenuated
- decrease in baseline bladder tension from baseline [5]: 47.0±2.5%
- relaxation (decrease in baseline bladder tension) [5]: 0.40 ± 0.05 g
- effect on baseline bladder tension / bladder tone [5]: decreased bladder tone
- effect on a large number of other serine/threonine protein kinases [11]: minimal effect

Structure (SMILES): C[N+](C)(C)CCOC(N)=O.[Cl-] [carbachol, carbamylcholine chloride]
- EC50 ([9]; Rattus norvegicus, read-out: carbachol EC50 in the presence of Y-27632): 1.03 ± 0.336 µM
- Emax at 10 µM ([9]; Rattus norvegicus, vehicle experiments, at 10^−5 M carbachol, read-out: maximal response to carbachol as % of the response to 100 mM KCl): 105 ± 28.2%
- EC50 ([9]; Rattus norvegicus, vehicle experiments, read-out: carbachol EC50 in the absence of antagonist): 0.183 ± 0.0689 µM
- maximal response to carbachol ([9]; vehicle experiments, at 10^−5 M carbachol): 5.3 ± 0.9 g

Structure (SMILES): Nc1ncnc2c1ncn2[C@@H]1O[C@H](COP(=O)(O)CP(=O)(O)OP(=O)(O)O)[C@@H](O)[C@H]1O [α,β-methylene ATP]
- mean amplitude of contractile responses evoked by α,β-methylene ATP [3]: 3.9 ± 0.5 g
